Here are results for 19 compounds from US20260297042A1, “BIARYLAMIDE DERIVATIVES AND THEIR USE AS PKMYT1 INHIBITORS” (CANCER RESEARCH TECHNOLOGY LIMITED, priority 2023, published 2026).

Counter-ions that a name gives are not always drawn. Where only a bound is given, the exact number is not on record here.

One assay deals with T1, Human PKMYT1 (Homo sapiens, UniProt Q99640).
T1 construct: Human PKMYT1 75-362 was cloned as a TEV cleavable 6xHis fusion; 6xHis (TEV cleavable) (cleaved yes); made in house; host or cells: bacterial cells
T1 sequence (Q99640 75-362): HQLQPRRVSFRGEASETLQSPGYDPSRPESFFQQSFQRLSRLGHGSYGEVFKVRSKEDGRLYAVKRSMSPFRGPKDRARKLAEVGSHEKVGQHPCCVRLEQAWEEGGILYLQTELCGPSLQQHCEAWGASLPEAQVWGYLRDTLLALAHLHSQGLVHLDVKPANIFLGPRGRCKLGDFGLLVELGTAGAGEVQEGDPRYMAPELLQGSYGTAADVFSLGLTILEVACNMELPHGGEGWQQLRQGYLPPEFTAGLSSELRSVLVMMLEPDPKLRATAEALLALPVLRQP
The assay is described as follows: PKMYT1 biochemical ADP-Glo enzymatic assay. The settings on record: ADP-Glo. Put shortly: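 Compounds were titrated over 10 points (3-fold steps), then 15 nM purified PKMYT1 kinase domain (aa 75-362) and 500 µM ATP were added in pH 7.5 HEPES buffer. After 60 min at 26 °C, remaining ATP was depleted and ADP converted to luminescence for IC50 fitting.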
Background: In ADP-Glo the light output rises with the ADP produced.

A further assay addresses T2, WEE1 (Homo sapiens, UniProt P30291).
T2 construct: purchased Thermo Fisher PR7373A
Briefly: Selectivity versus WEE1 assay (ADP-Glo enzymatic assay). The assay is classed as biochemical. The settings on record: for IC50: ADP-Glo; for PKMYT1 vs. WEE1 selectivity: fold difference in selectivity for PKMYT1 over WEE1. Put shortly: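 Compounds were pre-dispensed, enzyme (15 nM final) was added in pH 7.5 HEPES buffer, and ATP ([…]) then started a 60 min incubation at 26° C. Afterwards ADP-Glo reagents were added in turn and luminescence was measured to derive IC50 values.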

Setting [1] is: 15 nM PKMYT1 kinase domain, 500 µM ATP, 60 minutes at 26° C., banded.
[2] abbreviates: 15 nM WEE1, 60 minutes at 26° C., banded.
Setting [3] is: banded, ">N" = at least in this band but could be higher.
Setting [4] is: PKMYT1 kinase domain 15 nM, banded values.

T2 sequence (P30291 whole entry): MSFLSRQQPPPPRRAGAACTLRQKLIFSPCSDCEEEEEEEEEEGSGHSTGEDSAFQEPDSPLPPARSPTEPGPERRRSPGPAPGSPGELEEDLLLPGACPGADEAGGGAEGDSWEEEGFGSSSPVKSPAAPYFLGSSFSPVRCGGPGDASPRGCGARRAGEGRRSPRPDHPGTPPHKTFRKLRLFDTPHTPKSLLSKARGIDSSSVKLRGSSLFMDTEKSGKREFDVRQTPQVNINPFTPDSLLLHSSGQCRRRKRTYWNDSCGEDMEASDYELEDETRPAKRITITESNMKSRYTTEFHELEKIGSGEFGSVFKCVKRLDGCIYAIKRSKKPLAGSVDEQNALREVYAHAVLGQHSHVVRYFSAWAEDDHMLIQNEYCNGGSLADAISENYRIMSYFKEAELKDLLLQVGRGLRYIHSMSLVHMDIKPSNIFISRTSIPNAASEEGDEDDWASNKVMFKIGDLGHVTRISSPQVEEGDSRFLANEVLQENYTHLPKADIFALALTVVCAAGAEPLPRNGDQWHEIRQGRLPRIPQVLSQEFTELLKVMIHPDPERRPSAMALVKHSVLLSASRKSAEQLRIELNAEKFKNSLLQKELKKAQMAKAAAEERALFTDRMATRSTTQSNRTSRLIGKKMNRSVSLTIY

A word on the IC50: it is the concentration that gives 50% inhibition. The low end stands for greater potency, the high end for weaker potency. Take `Cc1ccc(O)c(C)c1NC(=O)c1cnc(Nc2ccn(CC(=O)N3CCN(C4CC4)CC3)n2)s1` [BAA-182, 2-[[1-[2-(4-cyclopropylpiperazin-1-yl)-2-oxo-ethyl]pyrazol-3-yl]amino]-N-(3-hydroxy-2,6-dimethyl-phenyl)thiazole-5-carboxamide]: the half-inhibitory concentration (IC50) on Human PKMYT1 (setting [1]) is less than 50 nM; on WEE1 (setting [2]), greater than 11000 nM. The “PKMYT1 vs. WEE1 selectivity” value on WEE1 (setting [3]) is reported as “Y (1000-5000 fold)”.
`Cc1ccc(O)c(C)c1NC(=O)c1cnc(NCc2nccs2)s1` [BAA-358, N-(3-hydroxy-2,6-dimethylphenyl)-2-((thiazol-2-ylmethyl)amino)thiazole-5-carboxamide]: the IC50 on Human PKMYT1 (setting [1]) is 50 to 1000 nM; against WEE1 (setting [2]), greater than 11000 nM. In addition, the “PKMYT1 vs. WEE1 selectivity” value at WEE1 (setting [3]) was “X (100-<1000 fold)”.
For `CNC(=O)Cn1ccc(Nc2ncc(C(=O)Nc3c(C)ccc(O)c3C)s2)n1` [BAA-141, N-(3-hydroxy-2,6-dimethyl-phenyl)-2-[[1-[2-(methylamino)-2-oxo-ethyl]pyrazol-3-yl]amino]thiazole-5-carboxamide] the same measures were less than 50 nM, greater than 11000 nM and “X (100-<1000 fold)”.
In the case of `Cc1ccc(O)c(C)c1NC(=O)c1cnc(Nc2cccc3c2CCC3)s1` [BAA-443, 2-((2,3-dihydro-1H-inden-4-yl)amino)-N-(3-hydroxy-2,6-dimethylphenyl)thiazole-5-carboxamide], the IC50 against Human PKMYT1 (setting [4]) is 50 to 1000 nM; against WEE1 (WEE1 15 nM, banded values), greater than 11000 nM. Further, the “PKMYT1 vs. WEE1 selectivity” value at WEE1 (banded) is “X (100-<1000 fold)”.
Turning to `Cc1ccc(O)c(C)c1NC(=O)c1cnc(Nc2cc(C(=O)O)n(C)n2)s1` [BAA-118, 5-[[5-[(3-hydroxy-2,6-dimethyl-phenyl)carbamoyl]thiazol-2-yl]amino]-2-methyl-pyrazole-3-carboxylic acid], the IC50 is less than 50 nM against Human PKMYT1 (setting [1]) and greater than 11000 nM on WEE1 (setting [2]). Moreover, the “PKMYT1 vs. WEE1 selectivity” value on WEE1 (setting [3]) is recorded as “X (100-<1000 fold)”.
On the same counts, the results for `COc1ccccc1CNc1ncc(C(=O)Nc2c(C)ccc(O)c2C)s1` [BAA-355, N-(3-hydroxy-2,6-dimethylphenyl)-2-((2-methoxybenzyl)amino) thiazole-5-carboxamide] are 50 to 1000 nM, greater than 11000 nM and “X (100-<1000 fold)”.
On to `CCC(C(=O)N(C)C)n1ccc(Nc2ncc(C(=O)Nc3c(C)ccc(O)c3C)s2)n1` (stereo not drawn) [BAA-507, 2-((1-(1-(dimethylamino)-1-oxobutan-2-yl)-1H-pyrazol-3-yl)amino)-N-(3-hydroxy-2,6-dimethylphenyl)thiazole-5-carboxamide], for which the IC50 on Human PKMYT1 (setting [4]) is less than 50 nM; at WEE1 (WEE1 15 nM, banded values), greater than 11000 nM. Further, the “PKMYT1 vs. WEE1 selectivity” value on WEE1 (banded) is “X (100-<1000 fold)”.
On to `Cc1ccc(O)c(C)c1NC(=O)c1cnc(Nc2ncc(C(F)(F)F)cn2)s1` [BAA-279, N-(3-hydroxy-2,6-dimethylphenyl)-2-((5-(trifluoromethyl)pyrimidin-2-yl)amino)thiazole-5-carboxamide], for which the figures for the IC50 at Human PKMYT1 (setting [1]) and at WEE1 (setting [2]) were less than 50 nM and greater than 11000 nM, respectively. The “PKMYT1 vs. WEE1 selectivity” value on WEE1 (setting [3]) is listed as “Y (1000-5000 fold)”.
For `Cc1ccc(O)c(C)c1NC(=O)c1cnc(Nc2ccn(CC(=O)N3CC4CCC(C3)N4C(=O)OC(C)(C)C)n2)s1` [BAA-180] the same measures were less than 50 nM, greater than 11000 nM and “Y (1000-5000 fold)”.
For `Cc1ccc(O)c(C)c1NC(=O)c1cnc(Nc2cc(C3CC3)n(C)n2)s1` [BAA-245, 2-((5-cyclopropyl-1-methyl-1H-pyrazol-3-yl)amino)-N-(3-hydroxy-2,6-dimethylphenyl)thiazole-5-carboxamide] the same measures were less than 50 nM, greater than 11000 nM and “Y (1000-5000 fold)”.
`Cc1nc(Cl)cc(Nc2ncc(C(=O)Nc3c(C)ccc(O)c3C)s2)n1` [BAA-436, 2-((6-chloro-2-methylpyrimidin-4-yl)amino)-N-(3-hydroxy-2,6-dimethylphenyl)thiazole-5-carboxamide]: the IC50 against Human PKMYT1 (setting [4]) was less than 50 nM; at WEE1 (WEE1 15 nM, banded values), greater than 11000 nM. Further, the “PKMYT1 vs. WEE1 selectivity” value on WEE1 (banded) is “Z (>5000 fold)”.
In the case of `Cc1ccc(O)c(C)c1NC(=O)c1cnc(Nc2ccn(CC(=O)N3CC4(CNC4)C3)n2)s1` [BAA-200, 2-[[1-[2-(2,6-Diazaspiro[3.3]heptan-2-yl)-2-oxo-ethyl]pyrazol-3-yl]amino]-N-(3-hydroxy-2,6-dimethyl-phenyl)thiazole-5-carboxamide 2,2,2-trifluoroacetate], the IC50 on Human PKMYT1 (setting [1]) is less than 50 nM; against WEE1 (setting [2]) it was greater than 11000 nM. Further, the “PKMYT1 vs. WEE1 selectivity” value at WEE1 (setting [3]) is “X (100-<1000 fold)”.
On the same counts, the results for `Cc1ccc(O)c(C)c1NC(=O)c1cnc(Nc2nc(CO)cs2)s1` [BAA-018] are less than 50 nM, greater than 11000 nM and “X (100-<1000 fold)”.
On the same counts, the results for `Cc1ccc(O)c(C)c1NC(=O)c1cnc(Nc2ccn([C@@H]3CCNC3)n2)s1` [BAA-056, N-(3-hydroxy-2,6-dimethyl-phenyl)-2-[[1-[(3R)-pyrrolidin-3-yl]pyrazol-3-yl]amino]thiazole-5-carboxamide hydrochloride] are 50 to 1000 nM, greater than 11000 nM and “X (100-<1000 fold)”.
For `CCn1ccc(Nc2ncc(C(=O)Nc3c(C)ccc(O)c3C)s2)n1` [BAA-005, 2-[(1-ethylpyrazol-3-yl)amino]-N-(3-hydroxy-2,6-dimethyl-phenyl)thiazole-5-carboxamide] the same measures were less than 50 nM, 1000 to 11000 nM and “X (100-<1000 fold)”.
As to `Cc1nccc(Nc2ncc(C(=O)Nc3c(C)ccc(O)c3C)s2)n1` [BAA-434, N-(3-hydroxy-2,6-dimethylphenyl)-2-((2-methylpyrimidin-4-yl)amino)thiazole-5-carboxamide], the IC50 against Human PKMYT1 (setting [4]) is less than 50 nM; against WEE1 (WEE1 15 nM, banded values) it was greater than 11000 nM. Moreover, at WEE1 (banded), the “PKMYT1 vs. WEE1 selectivity” value is “Y (1000-5000 fold)”.
For `Cc1ccc(O)c(C)c1NC(=O)c1cnc(Nc2cnn(CC(=O)N3CCCC3)c2C)s1` [BAA-556, N-(3-hydroxy-2,6-dimethylphenyl)-2-((5-methyl-1-(2-oxo-2-(pyrrolidin-1-yl)ethyl)-1H-pyrazol-4-yl)amino)thiazole-5-carboxamide] the same measures were 50 to 1000 nM, greater than 11000 nM and “X (100-<1000 fold)”.
On the same counts, the results for `Cc1ccc(O)c(C)c1NC(=O)c1cnc(Nc2cn(C)nc2C)s1` [BAA-521, 2-((1,3-dimethyl-1H-pyrazol-4-yl)amino)-N-(3-hydroxy-2,6-dimethylphenyl)thiazole-5-carboxamide] are 50 to 1000 nM, greater than 11000 nM and “X (100-<1000 fold)”.
With `Cc1ccc(O)c(C)c1NC(=O)c1cnc(Nc2ccn(CC(=O)N3CCCCC3)n2)s1` [BAA-149, N-(3-hydroxy-2,6-dimethyl-phenyl)-2-[[1-[2-oxo-2-(1-piperidyl)ethyl]pyrazol-3-yl]amino]thiazole-5-carboxamide], the IC50 on Human PKMYT1 (setting [1]) is less than 50 nM; against WEE1 (setting [2]) it was greater than 11000 nM. At WEE1 (setting [3]), the “PKMYT1 vs. WEE1 selectivity” value is “Y (1000-5000 fold)”.
